For three compounds, control value and growth inhibition rate results are on record in patent US20240260575A1, “AGRICULTURAL AND HORTICULTURAL FUNGICIDAL COMPOSITION” (Nippon Soda Co., Ltd., priority 2021, published 2024).

Assay [1] relates to cucumber powdery mildew pathogen (Sphaerotheca fuliginea). The assay is described as follows: Cucumber powdery mildew control test. The format is in vivo. Also on record: scale not given here. The settings on record: sprayed onto cucumber seedlings. The source says: (Test Example) Cucumber Powdery Mildew Control Test 1) Preparation of Drug Solution for Test […] The other components (II) were each formulated into an aqueous solution or suspension having a predetermined concentration. 2) Test A mixed solution of a component (I) and a component (II) at a predetermined concentration was sprayed onto cucumber seedlings (variety: “Shimo-shirazu, creeping type”, cotyledon stage). After natural drying at room temperature, conidiospores of a cucumber powdery mildew pathogen (Sphaerotheca fuliginea) were inoculated by blushing off, and the seedlings were kept in a thermostatic room at 20° C. using a 12 hour light/dark cycle for 7 to 10 days. The states of lesion development on leaves were examined by comparing with that for the untreated case, and the control values were determined. The test was duplicately carried out. The results are shown in Tables 8 to 12 together with expected values calculated as follows. Expected values were calculated by using Colby's equation: […] Here, E denotes an expected value of a control value, M denotes a control value in using a component (I) alone, and N denotes a control value in using a component (II) alone. If the actually measured control value of a composition of a component (I) and a component (II) is higher than the expected value, E, the composition of a component (I) and a component (II) is said to have exerted synergistic effect.

The subject of assay [2] is gray mold pathogen (Botrytis cinerea). The assay is described as follows: Gray mold antimicrobial test (growth inhibition rate). It is filed as cell-based. How it is done: (Test Example) Gray Mold Antimicrobial Test (Growth Inhibition Rate)
Conidiospores of a gray mold pathogen (Botrytis cinerea) were added to and dispersed in a yeast extract sucrose medium, and a component (I) and a component (II) dissolved in dimethyl sulfoxide at predetermined concentrations were further added and mixed thereto, and the resulting solution was dispensed onto a 96-well microplate and cultivated in the dark at 20° C. for 3 to 5 days. After the cultivation, the turbidity at a wavelength of 405 nm was measured by a microplate reader and compared with that in the untreated case to determine the growth inhibition rate (%) for the gray mold pathogen. The test was duplicately carried out. The results are shown in Tables 3 to 7 together with expected values calculated as follows.
Expected values were calculated by using Colby's equation: E=M+N−MN/100. Here, E denotes an expected value (%) of a growth inhibition rate, M denotes a growth inhibition rate (%) in using a component (I) alone, and N denotes a growth inhibition rate (%) in using a component (II) alone.
If the actually measured growth inhibition rate (%) of a composition of a component (I) and a component (II) is higher than the expected value, E, the composition of a component (I) and a component (II) is said to have exerted synergistic effect.

Take `COc1ccc(F)cc1C(O)Cn1cc(/C(C)=N/OC(C)C)c(=O)n(C[C@@H](NC(=O)C(C)(C)C)C(C)C)c1=O` (stereo partly drawn) [Compound 2]: the control value is on record as 67 in assay [1] (Table 9, Examination 1, Compound 2 0.4 ppm alone or mixed with component (II)); 71 in assay [1] (Table 9, Examination 2, Compound 2 0.4 ppm alone or mixed with component (II)); 67 in assay [1] (Table 9, Examination 3, Compound 2 0.4 ppm alone or mixed with component (II)); 67 in assay [1] (Table 9, Examination 4, Compound 2 0.4 ppm alone or mixed with component (II)); 59 in assay [1] (Table 9, Examination 5, Compound 2 0.4 ppm alone or mixed with component (II)); 67 in assay [1] (Table 9, Examination 6, Compound 2 0.4 ppm alone or mixed with component (II)). The growth inhibition rate in assay [2] (Table 4, Examination 1, Compound 2 (0.25 or 0.063 ppm) alone or mixed with component (II)) was 69%; in assay [2] (Table 4, Examination 2, Compound 2 (0.25 or 0.063 ppm) alone or mixed with component (II)), 53%; in assay [2] (Table 4, Examination 3, Compound 2 (0.25 or 0.063 ppm) alone or mixed with component (II)), 46%; in assay [2] (Table 4, Examination 4, Compound 2 (0.25 or 0.063 ppm) alone or mixed with component (II)) it was 41%; in assay [2] (Table 4, Examination 5, Compound 2 (0.25 or 0.063 ppm) alone or mixed with component (II)), 35%.

Turning to `COc1ccc(F)cc1C(O)Cn1cc(/C(C)=N/OC(C)C)c(=O)n(C[C@@H](NC(=O)C(C)C)C(C)C)c1=O` (stereo partly drawn) [Compound 1], the control value in assay [1] (Table 8, Examination 1, Compound 1 0.4 ppm alone or mixed with component (II)) turned out to be 78; in assay [1] (Table 8, Examination 2, Compound 1 0.4 ppm alone or mixed with component (II)), 64; in assay [1] (Table 8, Examination 3, Compound 1 0.4 ppm alone or mixed with component (II)) it was 67; in assay [1] (Table 8, Examination 4, Compound 1 0.4 ppm alone or mixed with component (II)) it was 83; in assay [1] (Table 8, Examination 5, Compound 1 0.4 ppm alone or mixed with component (II)), 75; in assay [1] (Table 8, Examination 6, Compound 1 0.4 ppm alone or mixed with component (II)), 67. Besides, the growth inhibition rate was found to be 52% in assay [2] (Table 3, Examination 2, Compound 1 (0.25 or 0.063 ppm) alone or mixed with component (II)) and 31% in assay [2] (Table 3, Examination 4, Compound 1 (0.25 or 0.063 ppm) alone or mixed with component (II)).

As to `COc1ccc(F)cc1C(O)Cn1cc(/C(C)=N/OC(C)C)c(=O)n(C[C@H](C)NC(=O)C(C)C)c1=O` (stereo partly drawn) [Compound 3, N-((2S)-1-(3-(2-(5-fluoro-2-methoxyphenyl)-2-hydroxyethyl)-5-((E)-1-(isopropoxyimino)ethyl)-2,6-dioxo-3,6-dihydropyrimidin-1(2H)-yl)propan-2-yl)isobutyramide], the control value in assay [1] (Table 10, Examination 1, Compound 3 0.4 ppm alone or mixed with component (II)) was determined as 72; in assay [1] (Table 10, Examination 2, Compound 3 0.4 ppm alone or mixed with component (II)) it was 68; in assay [1] (Table 10, Examination 3, Compound 3 0.4 ppm alone or mixed with component (II)), 56; in assay [1] (Table 10, Examination 4, Compound 3 0.4 ppm alone or mixed with component (II)), 61; in assay [1] (Table 10, Examination 5, Compound 3 0.4 ppm alone or mixed with component (II)), 34; in assay [1] (Table 10, Examination 6, Compound 3 0.4 ppm alone or mixed with component (II)), 67. For the same compound, the control value in assay [1] (Table 10, Examination 7, Compound 3 0.4 ppm alone or mixed with component (II)) was determined as 67. The growth inhibition rate is given as 74% in assay [2] (Table 5, Examination 1, Compound 3 (0.25 or 0.063 ppm) alone or mixed with component (II)); 63% in assay [2] (Table 5, Examination 2, Compound 3 (0.25 or 0.063 ppm) alone or mixed with component (II)); 48% in assay [2] (Table 5, Examination 3, Compound 3 (0.25 or 0.063 ppm) alone or mixed with component (II)); 14% in assay [2] (Table 5, Examination 4, Compound 3 (0.25 or 0.063 ppm) alone or mixed with component (II)).
